Earlier results in article PMC5852172, “Characterization of antimicrobial and hemolytic properties of short synthetic cationic lipopeptides based on QSAR/QSTR approach” (Amino Acids, 2017).

Columns and labels:
[1] = test system: Staphylococcus aureus (ATCC 25923); conditions: minimum inhibitory concentration, CLSI procedure, S. aureus ATCC 25923; ref [1] Greber et al. 2017
Source text: Supplement 726_2017_2530_MOESM1_ESM.docx, table 1: Table 1S. Antimicrobial activity toward Gram-positive strains and toxicity toward human red blood cells. | column: Staphylococcus aureus

[2] = test system: Enterococcus faecalis (ATCC 29212); conditions: minimum inhibitory concentration, CLSI procedure, E. faecalis ATCC 29212; ref [1] Greber et al. 2017
Source text: Supplement 726_2017_2530_MOESM1_ESM.docx, table 1: Table 1S. Antimicrobial activity toward Gram-positive strains and toxicity toward human red blood cells. | column: Enterococcus fecalis

[3] = test system: human red blood cells; conditions: lowest concentration of lipopeptide inducing 10% hemolysis of human red blood cells; ref [1] Greber et al. 2017
Source text: Supplement 726_2017_2530_MOESM1_ESM.docx, table 1: Table 1S. Antimicrobial activity toward Gram-positive strains and toxicity toward human red blood cells. | column: Haemolysis

[4] = test system: Bacillus subtilis (ATCC 6633); conditions: minimum inhibitory concentration, CLSI procedure, B. subtilis ATCC 6633; ref [1] Greber et al. 2017
Source text: Supplement 726_2017_2530_MOESM1_ESM.docx, table 1: Table 1S. Antimicrobial activity toward Gram-positive strains and toxicity toward human red blood cells. | column: Bacillus subtillis

[5] = test system: S. epidermidis (PCM 2118); conditions: minimum inhibitory concentration, CLSI procedure, ref [1] Greber et al. 2017
Source text: Supplement 726_2017_2530_MOESM1_ESM.docx, table 1: Table 1S. Antimicrobial activity toward Gram-positive strains and toxicity toward human red blood cells. | column: Staphylococcus epidermidis

Substance | Staphylococcus aureus MIC [1] | Enterococcus fecalis MIC [2] | Haemolysis MHC [3] | Bacillus subtillis MIC [4] | Staphylococcus epidermidis MIC [5]
C16-KK-NH2 | 8 µg/mL | 8 µg/mL | 256 µg/mL | 4 µg/mL | 4 µg/mL
C16-KKK-NH2 | 8 µg/mL | 16 µg/mL | 32 µg/mL | 8 µg/mL | 4 µg/mL
C16-KKKK-NH2 | 4 µg/mL | 16 µg/mL | 16 µg/mL | 4 µg/mL | 4 µg/mL
